The record followed here is patent US6596867B2, “Tartrate salt of a substituted dipeptide as growth hormone secretagogue” (Pfizer Inc., priority 1997, dated 2003).

Series [1] is described as follows: stability of the crystalline salt (stated property). The following applies: crystalline form. In kind it is physicochemical.
A short description of series [2]: solubility of the crystalline salt (stated property). In kind it is physicochemical. The following applies: crystalline form.

Molecules are shown by their SMILES. Counter-ions that a name gives are not always drawn.

As to `CC(C)(N)C(=O)N[C@H](COCc1ccc(F)cc1F)C(=O)N1CCC2=NN(CC(F)(F)F)C(=O)[C@]2(Cc2ccccn2)C1` [2-Amino-N-{1-(2,4-difluoro-benzyloxymethyl)-2-oxo-2-[3-oxo-3a-pyridin-2-ylmethyl-2-(2,2.2-trifluoro-ethyl)-2,3,3a,4,6,7-hexahydro-pyrazolo[4,3-c]pyridin-5-yl]-ethyl}-2-methyl-propionamide L-(+) tartrate], in series [1], the stability result is reported as “good stability”. Also, the solubility result in series [2] was “high solubility”.
